Data published in ChEMBL document CHEMBL1140590, “3-(2'-Bromopropionylamino)-benzamides as novel S-phase arrest agents” (Bioorg Med Chem Lett, 2007).
Each block holds one compound with its values, some of them ahead of it.

Experiments:
MOLT-3 = test: Antiproliferative activity against human Molt3 cells; format: functional, cell-based
MCF7 = test: Antiproliferative activity against human MCF7 cells; format: functional, cell-based
Bel-7402 = test: Antiproliferative activity against human Bel7402 cells; format: functional, cell-based
DU-145 = test: Antiproliferative activity against human DU145 cells; format: functional, cell-based
PC-3 = test: Antiproliferative activity against human PC3 cells; format: functional, cell-based
[1] = Antiproliferative activity against human DND1 cells; format: functional, cell-based
CEM (Homo sapiens) [2] = test: Cell cycle arrest in human CEM cells by accumulation at S phase after 6 hrs at 6.14 uM
CEM (Homo sapiens) [3] = test: Cell cycle arrest in human CEM cells by accumulation at S phase after 24 hrs at 6.14 uM
CEM (Homo sapiens) [4] = test: Cell cycle arrest in human CEM cells by accumulation at S phase after 6 to 12 hrs at 6.14 uM

IC50 (MOLT-3): 2250 nM
Compound: COc1cc(NC(=O)c2ccc(Cl)c(NC(=O)C(C)Br)c2)cc(OC)c1OC (stereo unspecified)

IC50 (MOLT-3): 2200 nM
Compound: COc1cc(NC(=O)c2ccc(F)c(NC(=O)C(C)Br)c2)cc(OC)c1OC (stereo unspecified)

IC50 (MOLT-3): 470 nM
Compound: COc1ccc(NC(=O)c2cc(NC(=O)C(C)Br)ccc2F)cc1OC (stereo unspecified)

IC50 (MOLT-3): 420 nM
IC50 (MCF7): 2110 nM
IC50 (Bel-7402): 2050 nM
IC50 (DU-145): 2030 nM
IC50 (PC-3): 2180 nM
Compound: COc1cc(NC(=O)c2cc(NC(=O)C(C)Br)ccc2F)cc(OC)c1OC (stereo unspecified)
IC50 [1]: 4160 nM

IC50 (MOLT-3): 5720 nM
Compound: COc1cc(NC(=O)c2ccccc2NC(=O)C(C)Br)cc(OC)c1OC (stereo unspecified)

IC50 (MOLT-3): 120 nM
IC50 (MCF7): 1230 nM
IC50 (Bel-7402): 2330 nM
IC50 (DU-145): 1870 nM
IC50 (PC-3): 2360 nM
Compound: COc1ccc(NC(=O)c2cccc(NC(=O)C(C)Br)c2)cc1OC (stereo unspecified)
IC50 [1]: 1400 nM
Activity (CEM (Homo sapiens) [2]): 52.9%
Activity (CEM (Homo sapiens) [3]): 61.9%
Activity (CEM (Homo sapiens) [4]): 62.7%

IC50 (MOLT-3): 1080 nM
Compound: COc1cc(NC(=O)c2cc(NC(=O)C(C)Br)ccc2O)cc(OC)c1OC (stereo unspecified)

Compound: COc1cc([C@@H]2c3cc4c(cc3[C@H](O)[C@H]3COC(=O)[C@H]23)OCO4)cc(OC)c1OC [PODOFILOX]
IC50 [1]: 12 nM

IC50 (MOLT-3): > 10000 nM
Compound: CCOc1ccc(NC(=O)c2cc(NC(=O)C(C)Br)ccc2F)cc1 (stereo unspecified)

IC50 (MOLT-3): 800 nM
Compound: COc1ccc(NC(=O)c2cccc(NC(=O)C(C)Br)c2)cc1 (stereo unspecified)

IC50 (MOLT-3): 1510 nM
Compound: CC(Br)C(=O)Nc1cccc(C(=O)Nc2ccc3[nH]c4ccccc4c3c2)c1 (stereo unspecified)

IC50 (MOLT-3): 4220 nM
Compound: COc1cc(NC(=O)NC(=O)c2cccc(NC(=O)C(C)Br)c2)cc(OC)c1OC (stereo unspecified)

IC50 (MOLT-3): > 10000 nM
Compound: CCCCNC(=O)c1cccc(NC(=O)C(C)Br)c1 (stereo unspecified)

IC50 (MOLT-3): 500 nM
IC50 (MCF7): 2200 nM
IC50 (Bel-7402): 2700 nM
IC50 (DU-145): 2350 nM
IC50 (PC-3): 2420 nM
Compound: COc1cc(NC(=O)c2cc(NC(=O)C(C)Br)ccc2F)ccn1 (stereo unspecified)
IC50 [1]: 2570 nM

IC50 (MOLT-3): 510 nM
IC50 (MCF7): 860 nM
IC50 (Bel-7402): 5260 nM
IC50 (DU-145): 6480 nM
IC50 (PC-3): 3130 nM
Compound: COc1cc(NC(=O)c2cccc(NC(=O)C(C)Br)c2)ccc1O (stereo unspecified)
IC50 [1]: 1220 nM

IC50 (MOLT-3): 1270 nM
Compound: COc1cc(NS(=O)(=O)c2cccc(NC(=O)C(C)Br)c2)cc(OC)c1OC (stereo unspecified)

IC50 (MOLT-3): 2000 nM
Compound: CC(Br)C(=O)Nc1cccc(C(=O)Nc2ccc(F)cc2)c1 (stereo unspecified)

IC50 (MOLT-3): 4240 nM
Compound: COc1ccc(C(=O)Nc2cc(OC)c(OC)c(OC)c2)cc1NC(=O)C(C)Br (stereo unspecified)

IC50 (MOLT-3): 610 nM
Compound: COc1cc(NC(=O)c2cccc(NC(=O)C(C)Br)c2)cc(OC)c1 (stereo unspecified)

IC50 (MOLT-3): > 10000 nM
Compound: CC(Br)C(=O)Nc1cccc(C(=O)N2CCN(C)CC2)c1 (stereo unspecified)

IC50 (MOLT-3): 5660 nM
Compound: COc1cc(C(=O)Nc2cccc(NC(=O)C(C)Br)c2)cc(OC)c1OC (stereo unspecified)

IC50 (MOLT-3): 670 nM
IC50 (MCF7): 1470 nM
IC50 (Bel-7402): 2640 nM
IC50 (DU-145): 1930 nM
IC50 (PC-3): 2460 nM
Compound: COc1cc(NC(=O)c2cccc(NC(=O)C(C)Br)c2)cc(OC)c1OC (stereo unspecified)
IC50 [1]: 2260 nM

Compound: COc1ccc(/C=C\c2cc(OC)c(OC)c(OC)c2)cc1O [COMBRETASTATIN A4]
IC50 (MOLT-3): 90 nM
IC50 (DU-145): 9 nM
IC50 [1]: 3 nM

IC50 (MOLT-3): 8940 nM
Compound: CCCNC(=O)c1cccc(NC(=O)C(C)Br)c1 (stereo unspecified)

IC50 (MOLT-3): 850 nM
Compound: COc1cc(NC(=O)c2cc(NC(=O)C(C)Br)ccc2F)ccc1O (stereo unspecified)

IC50 (MOLT-3): 250 nM
IC50 (MCF7): 1390 nM
IC50 (Bel-7402): 3370 nM
IC50 (DU-145): 6450 nM
IC50 (PC-3): 2430 nM
Compound: COc1ccc(NC(=O)c2cc(NC(=O)C(C)Br)ccc2F)cc1 (stereo unspecified)
IC50 [1]: 2560 nM

IC50 (MOLT-3): 620 nM
Compound: CC(Br)C(=O)Nc1cccc(C(=O)Nc2ccc3c(c2)OCO3)c1 (stereo unspecified)

IC50 (MOLT-3): 1790 nM
Compound: COc1cc(NC(=O)c2ccc(NC(=O)C(C)Br)cc2)cc(OC)c1OC (stereo unspecified)

IC50 (MOLT-3): 1660 nM
Compound: COc1ccc2nc(NC(=O)c3cccc(NC(=O)C(C)Br)c3)sc2c1 (stereo unspecified)

IC50 (MOLT-3): > 10000 nM
Compound: CC(Br)C(=O)Nc1cccc(C(=O)NCCN(C)C)c1 (stereo unspecified)

IC50 (MOLT-3): 1600 nM
Compound: CC(Br)C(=O)Nc1cccc(C(=O)NC(N)=O)c1 (stereo unspecified)
